Measurements reported in ChEMBL document CHEMBL3596104, “Covalent modifier-type aggregation inhibitor of amyloid-β based on a cyclo-KLVFF motif” (Bioorg Med Chem Lett, 2015).
Values belong to the compound of their own block, whether it stands above or below them. Active and inactive are the calls of the source. The rule behind the calls is not given here. Starred links: 1 amine or outer side, 2 acyl side, 3 side chain; linkers in the order of their positions; H or OH if unused. Non-standard residues stand in square brackets, D forms with d. Residues, ends and D or L forms follow the SMILES beside them. Phe(4-CF3-diazirinyl) = N[C@@H](Cc1ccc(C2(C(F)(F)F)N=N2)cc1)C(=O)O; X1 = O=C([C@H](Cc1ccc(C(O)C(F)(F)F)cc1)N[*:1])[*:2]; Dip = N[C@H](C(=O)O)C(c1ccccc1)c1ccccc1

Assays:
[1] = target: Amyloid-beta precursor protein (Homo sapiens) (UniProt P05067); test: Binding affinity to amyloid beta (1 to 42) (unknown origin) assessed as fluorescence intensity at 50 uM irradiated with UV light for 10 mins and measured after 60 mins by Thioflavin-T fluorescence assay (reference value: 100%)
Sequence of Amyloid-beta precursor protein (Homo sapiens) (P05067 whole entry): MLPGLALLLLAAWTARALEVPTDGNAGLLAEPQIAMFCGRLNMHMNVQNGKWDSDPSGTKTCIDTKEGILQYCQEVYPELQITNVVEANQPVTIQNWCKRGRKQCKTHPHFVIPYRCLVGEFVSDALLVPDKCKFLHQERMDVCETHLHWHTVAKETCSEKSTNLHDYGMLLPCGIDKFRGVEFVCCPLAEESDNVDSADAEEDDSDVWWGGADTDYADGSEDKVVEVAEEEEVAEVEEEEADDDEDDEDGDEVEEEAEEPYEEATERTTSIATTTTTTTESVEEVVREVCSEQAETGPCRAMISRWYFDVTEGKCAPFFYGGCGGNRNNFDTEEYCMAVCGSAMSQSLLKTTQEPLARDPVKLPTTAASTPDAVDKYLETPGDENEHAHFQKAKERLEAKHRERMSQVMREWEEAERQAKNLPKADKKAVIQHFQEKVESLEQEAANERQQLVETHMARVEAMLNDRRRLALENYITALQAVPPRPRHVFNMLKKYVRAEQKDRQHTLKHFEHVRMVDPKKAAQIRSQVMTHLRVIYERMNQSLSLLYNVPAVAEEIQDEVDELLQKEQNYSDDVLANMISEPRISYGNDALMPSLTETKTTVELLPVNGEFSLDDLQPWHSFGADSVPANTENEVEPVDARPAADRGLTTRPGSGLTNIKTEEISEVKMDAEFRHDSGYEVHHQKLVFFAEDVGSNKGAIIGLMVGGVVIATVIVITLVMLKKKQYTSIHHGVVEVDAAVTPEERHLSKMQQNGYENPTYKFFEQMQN

[2] = target: Amyloid-beta precursor protein (Homo sapiens) (UniProt P05067); test: Inhibition of amyloid beta (1 to 42) (unknown origin)-mediated cytotoxicity in rat PC12 cells treated with 30 mins compound pre-treated Abeta (1 to 42) followed by UV irradiation for 10 mins […] and measured after 48 hrs by WST8 assay; type: cell-based; conditions: PC-12
[3] = target: Amyloid-beta precursor protein (Homo sapiens) (UniProt P05067); test: Binding affinity to amyloid beta (1 to 42) (unknown origin) assessed as intensity of peak for compound-amyloid beta (1 to 16) adduct at 200 uM incubated for 20 mins irradiated with UV light for 10 mins by MALDI-TOF-MS method (reference value: 10%)
[4] = target: Amyloid-beta precursor protein (Homo sapiens) (UniProt P05067); test: Inhibition of fibril formation of amyloid beta (1 to 42) (unknown origin) at 50 uM incubated for 20 mins followed by irradiation with UV light for 10 mins and measured after 12 hrs by atomic force microscopy
[5] = target: Amyloid-beta precursor protein (Homo sapiens) (UniProt P05067); test: Binding affinity to amyloid beta (1 to 42) (unknown origin) assessed as fluorescence intensity at 50 uM irradiated with UV light for 10 mins and measured up to 4 hrs by Thioflavin-T fluorescence assay (reference value: 100%)
[6] = target: Amyloid-beta precursor protein (Homo sapiens) (UniProt P05067); test: Inhibition of amyloid beta (1 to 42) (unknown origin)-mediated cytotoxicity in rat PC12 cells treated with 20 mins compound pre-treated Abeta (1 to 42) followed by UV irradiation for 10 mins […] and measured after 48 hrs by WST8 assay; type: cell-based; conditions: PC-12
[7] = target: Amyloid-beta precursor protein (Homo sapiens) (UniProt P05067); test: Binding affinity to amyloid beta (1 to 42) (unknown origin) assessed as fluorescence intensity at 50 uM by Thioflavin-T fluorescence assay (reference value: 100%)
[8] = target: Amyloid-beta precursor protein (Homo sapiens) (UniProt P05067); test: Binding affinity to amyloid beta (1 to 16) (unknown origin) assessed as intensity of peak for compound-amyloid beta (1 to 16) adduct at 200 uM irradiated with UV light for 10 mins by MALDI-TOF-MS method
[9] = target: Amyloid-beta precursor protein (Homo sapiens) (UniProt P05067); test: Binding affinity to amyloid beta (1 to 42) (unknown origin) assessed as intensity of peak for compound-amyloid beta (1 to 16) adduct at 200 uM incubated for 60 mins irradiated with UV light for 10 mins by MALDI-TOF-MS method (reference value: 10%)
[10] = target: Amyloid-beta precursor protein (Homo sapiens) (UniProt P05067); test: Binding affinity to amyloid beta (1 to 42) (unknown origin) assessed as intensity of peak for compound-amyloid beta (29 to 42) adduct at 200 uM incubated for 20 to 120 mins irradiated with UV light for 10 mins by MALDI-TOF-MS method (reference value: 10%)
[11] = target: Amyloid-beta precursor protein (Homo sapiens) (UniProt P05067); test: Binding affinity to amyloid beta (1 to 42) (unknown origin) assessed as intensity of peak for compound-amyloid beta (1 to 16) adduct at 200 uM incubated for 120 mins irradiated with UV light for 10 mins by MALDI-TOF-MS method (reference value: 10%)
Insulin (Homo sapiens) = Insulin (Homo sapiens) (UniProt P01308); test: Binding affinity to human insulin at 200 uM incubated for 2 hrs irradiated with UV light for 10 mins by MALDI-TOF-MS method
Sequence of Insulin (Homo sapiens) (P01308 whole entry): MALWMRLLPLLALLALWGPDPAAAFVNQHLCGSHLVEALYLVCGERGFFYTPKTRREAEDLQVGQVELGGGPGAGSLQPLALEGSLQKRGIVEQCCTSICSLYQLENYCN

[12] = target: T1, Angiotensinogen (Homo sapiens) (UniProt P01019); test: Binding affinity to angiotensin-4 (unknown origin) at 200 uM incubated for 2 hrs irradiated with UV light for 10 mins by MALDI-TOF-MS method
T1 sequence (whole entry): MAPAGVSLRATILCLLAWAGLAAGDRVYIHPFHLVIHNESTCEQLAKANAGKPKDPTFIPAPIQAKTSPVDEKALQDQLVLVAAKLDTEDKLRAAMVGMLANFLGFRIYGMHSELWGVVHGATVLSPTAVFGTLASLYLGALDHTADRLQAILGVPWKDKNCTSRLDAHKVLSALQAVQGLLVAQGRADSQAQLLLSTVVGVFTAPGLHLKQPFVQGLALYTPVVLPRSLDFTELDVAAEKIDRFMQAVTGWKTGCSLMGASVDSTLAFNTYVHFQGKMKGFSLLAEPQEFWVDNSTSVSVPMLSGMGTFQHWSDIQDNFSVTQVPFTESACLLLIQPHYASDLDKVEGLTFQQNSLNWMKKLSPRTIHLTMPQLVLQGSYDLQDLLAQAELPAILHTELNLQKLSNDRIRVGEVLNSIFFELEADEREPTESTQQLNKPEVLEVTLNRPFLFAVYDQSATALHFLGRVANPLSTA

[13] = target: Amyloid-beta precursor protein (Homo sapiens) (UniProt P05067); test: Binding affinity to amyloid beta (1 to 42) (unknown origin) assessed as intensity of peak for compound-amyloid beta (17 to 28) adduct at 200 uM incubated for 20 to 120 mins irradiated with UV light for 10 mins by MALDI-TOF-MS method (reference value: 10%)
[14] = target: T2, Neuropeptide S (Homo sapiens) (UniProt P0C0P6); test: Binding affinity to neuropeptide-S (unknown origin) at 200 uM incubated for 2 hrs irradiated with UV light for 10 mins by MALDI-TOF-MS method
T2 sequence (whole entry): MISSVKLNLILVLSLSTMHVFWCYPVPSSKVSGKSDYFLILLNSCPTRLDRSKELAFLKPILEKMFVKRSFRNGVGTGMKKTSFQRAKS

[15] = target: Amyloid-beta precursor protein (Homo sapiens) (UniProt P05067); test: Binding affinity to amyloid beta (1 to 42) (unknown origin) assessed as compound-amyloid beta (4 to 11) adduct formation at Tyr10 residue at 200 uM incubated for 2 hrs irradiated with UV light for 10 mins by LC-MS/MS method
[16] = target: Amyloid-beta precursor protein (Homo sapiens) (UniProt P05067); test: Binding affinity to amyloid beta (1 to 42) (unknown origin) assessed as intensity of peak for compound-amyloid beta (1 to 16) adduct at 200 uM incubated for 10 mins irradiated with UV light for 10 mins by MALDI-TOF-MS method

Activity [3]: 10%
inhibition [4]: Active
Activity [5]: 21%
Activity [7]: 59%
Activity [8]: inactive
Activity [9]: 20%
Activity [10]: inactive
Activity [11]: 36%
Activity (Insulin (Homo sapiens)): inactive
Activity [12]: inactive
Activity [13]: inactive
Activity [14]: inactive
Activity [15]: Active
Activity [16]: Active
SMILES: CC(C)C[C@@H]1NC(=O)[C@H](CCCCN)NC(=O)[C@H](Cc2ccc(C3(C(F)(F)F)N=N3)cc2)NC(=O)[C@H](C(c2ccccc2)c2ccccc2)NC(=O)[C@H](C(C)C)NC1=O (cyclo([Dip][Phe(4-CF3-diazirinyl)]KLV))
inhibition [6]: Dose-dependent effect

Activity [16]: inactive
SMILES: C[C@@H]1NC(=O)[C@H](CC(=O)O)NC(=O)[C@H](CCCNC(=N)N)NC(=O)[C@H](Cc2ccc(C3(C(F)(F)F)N=N3)cc2)NC(=O)[C@H](CCC(=O)O)NC1=O (cyclo(AE[Phe(4-CF3-diazirinyl)]RD))

The next lines start with the compound.

SMILES: CC(C)C[C@@H]1NC(=O)[C@H](CCCCN)NC(=O)[C@H](Cc2ccc(C(O)C(F)(F)F)cc2)NC(=O)[C@H](C(c2ccccc2)c2ccccc2)NC(=O)[C@H](C(C)C)NC1=O (stereo not given in full) (cyclo([Dip][X1]KLV))
Activity [1]: 21%
inhibition [2]: Dose-dependent effect

SMILES: CC(C)(C)OC(=O)N[C@@H](Cc1ccc(C2(C(F)(F)F)N=N2)cc1)C(=O)O
Activity [16]: inactive

SMILES: CC(C)C[C@H]1NC(=O)[C@@H](CCCCN)NC(=O)[C@@H](Cc2ccccc2)NC(=O)[C@@H](C(c2ccccc2)c2ccccc2)NC(=O)[C@@H](C(C)C)NC1=O
Activity [7]: 68%
